Columns and labels:
APOBEC3G (A3G) = APOBEC3G (A3G) (Homo sapiens, UniProt Q9HC16); experiment: fluorescence ssDNA C-to-U deaminase assay; type: biochemical
APOBEC3A (A3A) = APOBEC3A (A3A) (Homo sapiens, UniProt P31941); experiment: fluorescence ssDNA C-to-U deaminase assay; type: biochemical
Sequence of APOBEC3A (A3A) (P31941 whole entry): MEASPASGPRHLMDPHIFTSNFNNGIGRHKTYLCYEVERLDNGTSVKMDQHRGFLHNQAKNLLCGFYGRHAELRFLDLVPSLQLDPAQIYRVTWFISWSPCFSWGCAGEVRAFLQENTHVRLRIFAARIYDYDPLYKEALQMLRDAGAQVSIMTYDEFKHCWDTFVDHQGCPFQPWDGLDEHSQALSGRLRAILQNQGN

Sequence of APOBEC3G (A3G) (Q9HC16 whole entry): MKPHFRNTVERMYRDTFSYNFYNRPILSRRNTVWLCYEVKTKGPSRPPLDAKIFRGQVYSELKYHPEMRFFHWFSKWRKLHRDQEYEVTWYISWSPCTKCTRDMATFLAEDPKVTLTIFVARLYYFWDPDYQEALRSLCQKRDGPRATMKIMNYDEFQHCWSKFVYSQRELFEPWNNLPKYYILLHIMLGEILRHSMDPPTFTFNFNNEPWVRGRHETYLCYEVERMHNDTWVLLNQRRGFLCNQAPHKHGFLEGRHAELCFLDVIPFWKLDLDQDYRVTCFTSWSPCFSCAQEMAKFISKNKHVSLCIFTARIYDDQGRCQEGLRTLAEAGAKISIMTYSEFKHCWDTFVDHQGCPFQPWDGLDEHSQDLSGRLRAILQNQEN

Compound	IC50 (APOBEC3G (A3G)) [µM]	IC50 (APOBEC3A (A3A)) [µM]
S=c1[nH]ncn1N=Cc1ccc(Br)cc1 [compound 1, 4-((4-bromobenzylidene)amino)-1,2,4-triazole-3-thiol]	4.3 ± 1.1	> 100
Nn1cnnc1S [compound 4, 4-amino-1,2,4-triazole-3-thiol]	> 100	> 100
Cc1nnc(S)n1N [compound 5, 4-amino-5-methyl-1,2,4-triazole-3-thiol]	6.1 ± 1.1	> 100
Cc1nnc(O)n1N [compound 7, 4-amino-5-methyl-1,2,4-triazol-3-ol]		> 100

Other lines, results leading:

IC50 (APOBEC3G (A3G)) [µM]	IC50 (APOBEC3A (A3A)) [µM]	Compound
3.9 ± 1.2	> 100	COc1ccc(C=Nn2c(C)nnc2S)cc1 [compound 8, 4-((4-methoxybenzylidene)amino)-5-methyl-1,2,4-triazole-3-thiol]
8.2 ± 1.2	> 100	Cc1nnc(S)n1NC(=O)c1ccccc1 [compound 9, N-(3-mercapto-5-methyl-1,2,4-triazol-4-yl)benzamide]
	> 100	Cc1nnc(SCc2ccccc2)n1N [compound 11, 3-(benzylthio)-5-methyl-1,2,4-triazol-4-amine]

Reference: PMC3786134 (ChemMedChem, 2012)
